Source: patent US20240261417A1, “SOS1 DEGRADING AGENT AND PREPARATION METHOD THEREFOR AND APPLICATION THEREOF” (SHANGHAI LEADINGTAC PHARMACEUTICAL CO. LTD., priority 2021, published 2024)

Molecular target: T1, KRAS-G12C/SOS1 (Homo sapiens, UniProt Q07889)
T1 construct: purchased Cisbio 63ADKOOOCB16PEG
T1 sequence (Q07889 1-1333): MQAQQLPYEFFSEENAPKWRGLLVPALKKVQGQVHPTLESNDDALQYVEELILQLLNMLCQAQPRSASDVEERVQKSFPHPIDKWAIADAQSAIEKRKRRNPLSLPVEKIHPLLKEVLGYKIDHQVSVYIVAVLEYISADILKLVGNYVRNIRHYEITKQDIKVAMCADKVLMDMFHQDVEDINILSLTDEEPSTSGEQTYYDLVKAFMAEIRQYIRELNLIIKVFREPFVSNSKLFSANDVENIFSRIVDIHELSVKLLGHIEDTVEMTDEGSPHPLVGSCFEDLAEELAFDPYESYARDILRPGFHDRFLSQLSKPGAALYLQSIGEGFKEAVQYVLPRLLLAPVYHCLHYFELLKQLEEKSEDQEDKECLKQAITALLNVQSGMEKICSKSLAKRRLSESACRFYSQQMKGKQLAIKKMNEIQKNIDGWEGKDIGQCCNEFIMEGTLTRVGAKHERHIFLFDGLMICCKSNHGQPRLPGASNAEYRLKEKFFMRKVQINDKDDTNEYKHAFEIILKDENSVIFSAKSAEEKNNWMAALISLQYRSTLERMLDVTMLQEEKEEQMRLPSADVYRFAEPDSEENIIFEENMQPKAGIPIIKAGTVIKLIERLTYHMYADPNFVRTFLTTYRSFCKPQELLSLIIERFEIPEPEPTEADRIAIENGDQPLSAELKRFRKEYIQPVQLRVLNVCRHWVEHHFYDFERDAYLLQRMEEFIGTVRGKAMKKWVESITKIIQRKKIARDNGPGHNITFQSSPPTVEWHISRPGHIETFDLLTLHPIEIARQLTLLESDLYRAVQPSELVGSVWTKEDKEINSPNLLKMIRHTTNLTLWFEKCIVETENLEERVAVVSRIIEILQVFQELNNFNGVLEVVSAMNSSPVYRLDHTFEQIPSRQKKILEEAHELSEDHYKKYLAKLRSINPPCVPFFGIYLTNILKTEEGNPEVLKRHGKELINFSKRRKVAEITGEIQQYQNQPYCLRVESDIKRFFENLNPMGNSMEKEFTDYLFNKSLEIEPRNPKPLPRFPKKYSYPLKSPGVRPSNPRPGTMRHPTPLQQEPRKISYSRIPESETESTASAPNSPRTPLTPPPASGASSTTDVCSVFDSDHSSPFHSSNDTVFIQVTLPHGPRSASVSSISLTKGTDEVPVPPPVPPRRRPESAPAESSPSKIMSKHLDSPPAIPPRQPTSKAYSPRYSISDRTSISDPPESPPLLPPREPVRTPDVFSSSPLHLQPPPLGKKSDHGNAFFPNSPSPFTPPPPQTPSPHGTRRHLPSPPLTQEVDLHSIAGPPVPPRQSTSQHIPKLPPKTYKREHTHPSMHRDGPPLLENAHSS
Experiment: KRAS-G12C/SOS1 binding assay (HTRF)
Settings: inhibition of KRAS-G12C/SOS1 binding
Outline: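 HTRF competition assay with Tag1-SOS1 and Tag2-KRAS-G12C (10 μM GTP). Compounds at 10000 nM-0.04 nM final (0.5% DMSO), incubated 15 min at 25° C, then anti-tag Tb3+/XL665 antibodies added for 3 h on ice. The 665/620 nm ratio was compared with control and IC50 derived by nonlinear fit.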

Row | IC50 | SMILES
1 | 15 to 30 nM | COc1cc2nc(C)nc(N[C@H](C)c3cc(N)cc(C(F)(F)F)c3)c2cc1[C@H]1CC[C@H](C(=O)N2CCN(CCC3CCC4(CC3)CCN(C(=O)c3ccc(Cl)c(N5CCC(=O)NC5=O)c3)CC4)CC2)CC1 [Example 1, 1-(5-(9-(2-(4-((1R,4R)-4-(4-(((R)-1-(3-amino-5-(trifluoromethyl)phenyl)ethyl)amino)-7-methoxy-2-methylquinazolin-6-yl)cyclohexane-1-carbonyl)piperazin-1-yl)ethyl)-3-azaspiro[5.5]undecane-3-carbonyl)-2-chlorophenyl)dihydropyrimidine-2,4(1H,3H)-dione]
2 | ≤ 15 nM | COc1cc2nc(C)nc(N[C@H](C)c3cc(N)cc(C(F)(F)F)c3)c2cc1[C@H]1CC[C@H](C(=O)N2CCN(CC3CCC4(CC3)CCN(C(=O)c3ccc(Cl)c(N5CCC(=O)NC5=O)c3)CC4)CC2)CC1 [Example 2, 1-(5-(9-((4-((1R,4R)-4-(4-(((R)-1-(3-amino-5-(trifluoromethyl)phenyl)ethyl)amino)-7-methoxy-2-methylquinazolin-6-yl)cyclohexane-1-carbonyl)piperazin-1-yl)methyl)-3-azaspiro[5.5]undecane-3-carbonyl)-2-chlorophenyl)dihydropyrimidine-2,4(1H,3H)-dione]
